Test [1] addresses T1, HCV NS3/4A protease complex, BMS strain (UniProt P27958, species not given/STRAIN_BMS).
T1 construct: other: NS3/4A BMS strain; activity range class; numeric values, unit not given; said of H77 and J4L6S; fused on or other part: A three-lysine solubilising tail at the C-terminus of NS4A; A His tag is implied by the pET21b vector and Ni-NTA purification; Both are printed for the H77 and J4L6S constructs and apply to BMS by inference
Put plainly: FRET peptide assay to monitor HCV NS3/4A proteolytic activity (BMS strain). It is filed as biochemical, Hepatitis C virus (genotype 1a). Conditions: read-out: HCV Protease (IC50), NS3/4A BMS strain. The gist of the method:
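Inhibition measured by real-time fluorescence increase as the protease cleaves RET S1 FRET depsipeptide (2 μM final). Enzyme: >90% pure BMS-strain (1a) NS3/4A at 2-3 nM final, or 300 pM with 50 μg/ml BSA for potent compounds. Buffer: 50 mM HEPES pH 7.5, 0.15 M NaCl, 0.1% Triton, 15% glycerol, 10 mM βME.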

The test system of test [2] is HCV replicon (strain 1b) in HUH-7 cells. Briefly: HCV replicon FRET assay. It is filed as cell-based, Hepatitis C virus. Conditions: Hepatitis C virus, Huh-7, read-out: HCV Pro Replicon (EC50), HCV replicon cell assay. In general terms: In antiviral work, replicon cells carry a viral genome segment that copies itself.

Molecules are shown by their SMILES. Where two headings read alike, the source gives them in different places. Bounds are passed on as bounds.

A word on the IC50: it is the midpoint of a concentration-inhibition curve. As a reminder, the EC50 is the concentration that produces a half-maximal response.

T1 sequence (P27958 1027-1657, change not shown, one chain of several): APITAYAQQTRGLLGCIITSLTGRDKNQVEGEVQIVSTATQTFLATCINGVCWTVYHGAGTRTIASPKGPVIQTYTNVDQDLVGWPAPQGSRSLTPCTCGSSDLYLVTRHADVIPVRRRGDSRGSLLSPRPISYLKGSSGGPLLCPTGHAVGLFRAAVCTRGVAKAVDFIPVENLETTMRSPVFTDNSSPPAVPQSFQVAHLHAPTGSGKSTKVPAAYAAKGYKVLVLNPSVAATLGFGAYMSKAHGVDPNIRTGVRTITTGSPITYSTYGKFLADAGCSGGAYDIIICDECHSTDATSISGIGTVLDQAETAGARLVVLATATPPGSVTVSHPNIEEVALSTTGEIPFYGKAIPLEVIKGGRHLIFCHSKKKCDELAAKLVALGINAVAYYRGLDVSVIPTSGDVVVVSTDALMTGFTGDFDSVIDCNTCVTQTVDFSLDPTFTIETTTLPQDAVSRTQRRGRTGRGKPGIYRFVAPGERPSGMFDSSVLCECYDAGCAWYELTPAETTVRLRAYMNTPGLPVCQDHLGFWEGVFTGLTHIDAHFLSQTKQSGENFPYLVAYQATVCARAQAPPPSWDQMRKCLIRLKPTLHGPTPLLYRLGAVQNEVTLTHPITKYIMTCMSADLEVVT

As to `C=C[C@@H]1C[C@]1(NC(=O)[C@@H]1C[C@@H](Oc2ncc(OC)c3ccc(Cl)cc23)CN1C(=O)[C@H](Nc1cccc(C(=O)NC(C)(C)C)c1)C(C)(C)C)C(=O)NS(=O)(=O)C1CC1` [212 second isomer, N-(3-(tert-butylcarbamoyl)phenyl)-3-methyl-D-valyl-(4R)-4-((7-chloro-4-methoxy-1-isoquinolinyl)oxy)-N-((1R,2S)-1-((cyclopropylsulfonyl)carbamoyl)-2-vinylcyclopropyl)-L-prolinamide], the half-inhibitory concentration (IC50) in test [1] (activity range class) was in the range of 0.6 to 20 nM. In addition, the EC50 in test [2] (activity range class) fell in the range of 3 to 100 nM.
The matching figures for `C=C[C@@H]1C[C@]1(NC(=O)[C@@H]1C[C@@H](Oc2ncc(OC)c3ccc(Cl)cc23)CN1C(=O)[C@@H](Nc1cccc(C(=O)O)c1)C(C)(C)C)C(=O)NS(=O)(=O)C1CC1` [211 first isomer, N-(3-carboxyphenyl)-3-methyl-L-valyl-(4R)-4-((7-chloro-4-methoxy-1-isoquinolinyl)oxy)-N-((1R,2S)-1-((cyclopropylsulfonyl)carbamoyl)-2-vinylcyclopropyl)-L-prolinamide]: 0.6 to 20 nM and 3 to 100 nM.
The matching figures for `C=C[C@@H]1C[C@]1(NC(=O)[C@@H]1C[C@@H](Oc2ncc(OC)c3ccc(Cl)cc23)CN1C(=O)C(Nc1nsnc1OCC)C(C)(C)C)C(=O)NS(=O)(=O)C1CC1` (some centres unmarked) [Compound 243]: 0.6 to 20 nM and 3 to 100 nM.
For `C=C[C@@H]1C[C@]1(NC(=O)[C@@H]1C[C@@H](Oc2nccc3cc(OC)ccc23)CN1C(=O)C(Nc1nc(OC)cc(OC)n1)C(C)C)C(=O)NS(=O)(=O)C1CC1` (mixture of isomers) [Compound 5, N-(4,6-dimethoxy-2-pyrimidinyl)valyl-(4R)—N-((1R,2S)-1-((cyclopropylsulfonyl)carbamoyl)-2-vinylcyclopropyl)-4-((6-methoxy-1-isoquinolinyl)oxy)-L-prolinamide], the IC50 in test [1] (activity range class) is 20 to 200 nM. In addition, the EC50 in test [2] (activity range class) fell in the range of 100 to 1000 nM.
On the same counts, the results for `C=C[C@@H]1C[C@]1(NC(=O)[C@@H]1C[C@@H](Oc2nccc3cc(OC)ccc23)CN1C(=O)[C@H](Nc1nc(C)cc(C)n1)C(C)C)C(=O)NS(=O)(=O)C1CC1` [6 first isomer, N-(4,6-dimethyl-2-pyrimidinyl)-D-valyl-(4R)—N-((1R,2S)-1-((cyclopropylsulfonyl)carbamoyl)-2-vinylcyclopropyl)-4-((6-methoxy-1-isoquinolinyl)oxy)-L-prolinamide] are 20 to 200 nM and above 1000 nM.
With `C=C[C@@H]1C[C@]1(NC(=O)[C@@H]1C[C@@H](Oc2ncc(OC)c3ccc(Cl)cc23)CN1C(=O)[C@@H](Nc1ccc(C(=O)N(C)C)cc1)C(C)(C)C)C(=O)NS(=O)(=O)C1CC1` [221 first isomer, N-(4-(dimethylcarbamoyl)phenyl)-3-methyl-L-valyl-(4R)-4-((7-chloro-4-methoxy-1-isoquinolinyl)oxy)-N-((1R,2S)-1-((cyclopropylsulfonyl)carbamoyl)-2-vinylcyclopropyl)-L-prolinamide], the IC50 in test [1] (activity range class) was in the range of 0.6 to 20 nM. In addition, in test [2] (activity range class), the EC50 lay in the range of 100 to 1000 nM.
The matching figures for `C=C[C@@H]1C[C@]1(NC(=O)[C@@H]1C[C@@H](Oc2ncc(OC)c3ccc(Cl)cc23)CN1C(=O)[C@H](Nc1ccc(S(=O)(=O)N(C)C)cc1)C(C)(C)C)C(=O)NS(=O)(=O)C1CC1` [224 second isomer, N-(4-(dimethylsulfamoyl)phenyl)-3-methyl-D-valyl-(4R)-4-((7-chloro-4-methoxy-1-isoquinolinyl)oxy)-N-((1R,2S)-1-((cyclopropylsulfonyl)carbamoyl)-2-vinylcyclopropyl)-L-prolinamide]: above 200 nM and 100 to 1000 nM.
Turning to `C=C[C@@H]1C[C@]1(NC(=O)[C@@H]1C[C@@H](Oc2nccc3cc(OC)ccc23)CN1C(=O)[C@H](Nc1cc(C)cc(C)n1)C(C)(C)C)C(=O)NS(=O)(=O)C1CC1` [14 second isomer, N-(4,6-dimethyl-2-pyridinyl)-3-methyl-D-valyl-(4R)—N-((1R,2S)-1-((cyclopropylsulfonyl)carbamoyl)-2-vinylcyclopropyl)-4-((6-methoxy-1-isoquinolinyl)oxy)-L-prolinamide], in test [1] (activity range class), the IC50 was above 200 nM. Moreover, in test [2] (activity range class), the EC50 was in the range of 100 to 1000 nM.
The matching figures for `C=C[C@@H]1C[C@]1(NC(=O)[C@@H]1C[C@@H](Oc2nccc3cc(OC)ccc23)CN1C(=O)[C@@H](Nc1cccnc1)C(C)(C)C)C(=O)NS(=O)(=O)C1CC1` [13 first isomer, 3-methyl-N-3-pyridinyl-L-valyl-(4R)—N-((1R,2S)-1-((cyclopropylsulfonyl)carbamoyl)-2-vinylcyclopropyl)-4-((6-methoxy-1-isoquinolinyl)oxy)-L-prolinamide]: 20 to 200 nM and 3 to 100 nM.
Take `C=C[C@@H]1C[C@]1(NC(=O)[C@@H]1C[C@@H](Oc2ncc(OC)c3ccc(Cl)cc23)CN1C(=O)C(Nc1ccc(C)nc1)C(C)(C)C)C(=O)NS(=O)(=O)C1CC1` (single isomer, unassigned) [Compound 26B]: the half-inhibitory concentration (IC50) in test [1] (numeric values, unit inferred) came to 1300 nM. Moreover, in test [2] (numeric values, unit inferred), the EC50 was found to be 3190 nM.
Consider `C=C[C@@H]1C[C@]1(NC(=O)[C@@H]1C[C@@H](Oc2nccc3cc(OC)ccc23)CN1C(=O)C(Nc1ccccn1)C(C)C)C(=O)NS(=O)(=O)C1CC1` (single isomer, unassigned) [Compound 7], for which the IC50 in test [1] (activity range class) was in the range of 20 to 200 nM. Also, the half-maximal effective concentration (EC50) in test [2] (activity range class) lay in the range of 3 to 100 nM.
On the same counts, the results for `C=C[C@@H]1C[C@]1(NC(=O)[C@@H]1C[C@@H](Oc2ncc(OC)c3ccc(Cl)cc23)CN1C(=O)C(C)Nc1n[s+]([O-])nc1OC)C(=O)NS(=O)(=O)C1CC1` (some centres unmarked) [Compound 236] are above 200 nM and above 1000 nM.
In the case of `C=C[C@@H]1C[C@]1(NC(=O)[C@@H]1C[C@@H](Oc2ncc(OC)c3ccc(Cl)cc23)CN1C(=O)[C@@H](Nc1cccc(C(=O)OC(C)(C)C)c1)C(C)(C)C)C(=O)NS(=O)(=O)C1CC1` [210 first isomer, N-(3-(tert-butoxycarbonyl)phenyl)-3-methyl-L-valyl-(4R)-4-((7-chloro-4-methoxy-1-isoquinolinyl)oxy)-N-((1R,2S)-1-((cyclopropylsulfonyl)carbamoyl)-2-vinylcyclopropyl)-L-prolinamide], the IC50 in test [1] (activity range class) fell in the range of 0.6 to 20 nM. The EC50 in test [2] (activity range class) was 3 to 100 nM.
`C=C[C@@H]1C[C@]1(NC(=O)[C@@H]1C[C@@H](Oc2ncc(OC)c3ccc(Cl)cc23)CN1C(=O)C(Nc1cc(C)nc(C)c1)C(C)(C)C)C(=O)NS(=O)(=O)C1CC1` (single isomer, unassigned) [Compound 29B]: the IC50 in test [1] (numeric values, unit inferred) turned out to be 249 nM. In addition, the EC50 in test [2] (numeric values, unit inferred) turned out to be 14900 nM.
With `C=C[C@@H]1C[C@]1(NC(=O)[C@@H]1C[C@@H](Oc2nccc3cc(OC)ccc23)CN1C(=O)C(Nc1cc(C(F)(F)F)ccn1)C(C)C)C(=O)NS(=O)(=O)C1CC1` (single isomer, unassigned) [Compound 9], the half-inhibitory concentration (IC50) in test [1] (activity range class) lay in the range of 0.6 to 20 nM. In addition, in test [2] (activity range class), the EC50 lay within 3 to 100 nM.
On the same counts, the results for `C=C[C@@H]1C[C@]1(NC(=O)[C@@H]1C[C@@H](Oc2ncc(OC)c3ccc(Cl)cc23)CN1C(=O)[C@H](Nc1ccc(C(=O)O)cc1)C(C)(C)C)C(=O)NS(=O)(=O)C1CC1` [209 second isomer, N-(4-carboxyphenyl)-3-methyl-D-valyl-(4R)-4-((7-chloro-4-methoxy-1-isoquinolinyl)oxy)-N-((1R,2S)-1-((cyclopropylsulfonyl)carbamoyl)-2-vinylcyclopropyl)-L-prolinamide] are above 200 nM and above 1000 nM.
Consider `C=C[C@@H]1C[C@]1(NC(=O)[C@@H]1C[C@@H](Oc2ncc(OC)c3ccc(Cl)cc23)CN1C(=O)[C@@H](Nc1ccc(S(=O)(=O)N(C)C)cc1)C(C)(C)C)C(=O)NS(=O)(=O)C1CC1` [224 first isomer, N-(4-(dimethylsulfamoyl)phenyl)-3-methyl-L-valyl-(4R)-4-((7-chloro-4-methoxy-1-isoquinolinyl)oxy)-N-((1R,2S)-1-((cyclopropylsulfonyl)carbamoyl)-2-vinylcyclopropyl)-L-prolinamide], for which the IC50 in test [1] (activity range class) was in the range of 0.6 to 20 nM. Moreover, the EC50 in test [2] (activity range class) fell in the range of 100 to 1000 nM.
Regarding `C=C[C@@H]1C[C@]1(NC(=O)[C@@H]1C[C@@H](Oc2ncc(OC)c3ccc(Cl)cc23)CN1C(=O)[C@@H](Nc1cccc(S(=O)(=O)NC)c1)C(C)(C)C)C(=O)NS(=O)(=O)C1CC1` [227 first isomer, 3-methyl-N-(3-(methylsulfamoyl)phenyl)-L-valyl-(4R)-4-((7-chloro-4-methoxy-1-isoquinolinyl)oxy)-N-((1R,2S)-1-((cyclopropylsulfonyl)carbamoyl)-2-vinylcyclopropyl)-L-prolinamide], the IC50 in test [1] (activity range class) lay within 0.6 to 20 nM. In test [2] (activity range class), the EC50 is 3 to 100 nM.
As to `C=C[C@@H]1C[C@]1(NC(=O)[C@@H]1C[C@@H](Oc2nccc3cc(OC)ccc23)CN1C(=O)[C@H](Nc1cccnc1)C(C)(C)C)C(=O)NS(=O)(=O)C1CC1` [Compound 13B, 3-methyl-N-3-pyridinyl-D-valyl-(4R)—N-((1R,2S)-1-((cyclopropylsulfonyl)carbamoyl)-2-vinylcyclopropyl)-4-((6-methoxy-1-isoquinolinyl)oxy)-L-prolinamide], in test [1] (numeric values, unit inferred), the concentration for half-maximal inhibition (IC50) turned out to be 1200 nM. In addition, the EC50 in test [2] (numeric values, unit inferred) is 5740 nM.

These data come from patent US7772180B2, “Hepatitis C virus inhibitors” (Bristol-Myers Squibb Company, priority 2006, dated 2010).
